From ChEMBL document CHEMBL1201862, “PubChem BioAssay data set” (2004)
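Grown in 96-well plates, cells were treated for 48 hours with each compound at five concentrations. Insufficient inhibition: endpoint recorded as highest concentration tested. At the GI50, growth is halved.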 The source made the active and inactive calls. Rule as the data show it: active = GI50 up to about 1.1 µM and inactive = higher.

How the values were obtained:
Assay in all cases: NCI anticancer screen, dose series, 48 h
CAKI-1 = tested on: CAKI-1
DU-145 = tested on: DU-145
HCC 2998 = tested on: HCC 2998
HCT-15 = tested on: HCT-15
KM12 = tested on: KM12
MDA-MB-231 = tested on: MDA-MB-231
MDA-MB-435 = tested on: MDA-MB-435
NCI-H23 = tested on: NCI-H23
OVCAR-3 = tested on: OVCAR-3
OVCAR-4 = tested on: OVCAR-4
OVCAR-8 = tested on: OVCAR-8
RXF 393 = tested on: RXF 393
SF-295 = tested on: SF-295
SK-MEL-28 = tested on: SK-MEL-28
SNB-19 = tested on: SNB-19
SR = tested on: SR
UACC-257 = tested on: UACC-257
UO-31 = tested on: UO-31
M14 = tested on: M14
SF-539 = tested on: SF-539

| SMILES | GI50 (CAKI-1) | GI50 (DU-145) | GI50 (HCC 2998) | GI50 (HCT-15) [µM] | GI50 (KM12) | GI50 (MDA-MB-231) | GI50 (MDA-MB-435) | GI50 (NCI-H23) | GI50 (OVCAR-3) | GI50 (OVCAR-4) | GI50 (OVCAR-8) | GI50 (RXF 393) | GI50 (SF-295) | GI50 (SK-MEL-28) | GI50 (SNB-19) | GI50 (SR) | GI50 (UACC-257) | GI50 (UO-31) | GI50 (M14) | GI50 (SF-539) |
| --- | --- | --- | --- | --- | --- | --- | --- | --- | --- | --- | --- | --- | --- | --- | --- | --- | --- | --- | --- | --- |
| N#CC12CNCC1CN=N2 (stereo not drawn) | > 100 µM (inactive) | > 100 µM (inactive) | > 100 µM (inactive) | > 100 | > 100 µM (inactive) | > 100 µM (inactive) | > 100 µM (inactive) | > 100 µM (inactive) | > 100 µM (inactive) | > 100 µM (inactive) | > 100 µM (inactive) | > 100 µM (inactive) | > 100 µM (inactive) | > 100 µM (inactive) | > 100 µM (inactive) | > 100 µM (inactive) | > 100 µM (inactive) | > 100 µM (inactive) | – | – |
| O=C1/C(=C/c2ccc(O)cc2)CCC1CNc1ccccc1 (stereo not drawn) | 12.5 µM (inactive) | 12.3 µM (inactive) | 18.8 µM (inactive) | 5.05 | 6.65 µM (inactive) | 14.4 µM (inactive) | 18.7 µM (inactive) | 14.3 µM (inactive) | 14.6 µM (inactive) | 19.1 µM (inactive) | 16 µM (inactive) | 20.3 µM (inactive) | 15.9 µM (inactive) | 15.4 µM (inactive) | 16.3 µM (inactive) | 1.74 µM (inactive) | 16.7 µM (inactive) | 15.6 µM (inactive) | 12.2 µM (inactive) | 16.1 µM (inactive) |
| C=CC(C)(C)C(=C)C(=O)N(C)c1ccccc1I | > 100 µM (inactive) | > 100 µM (inactive) | > 100 µM (inactive) | > 100 | > 100 µM (inactive) | > 100 µM (inactive) | > 100 µM (inactive) | 84.1 µM (inactive) | > 100 µM (inactive) | 48.3 µM (inactive) | > 100 µM (inactive) | > 100 µM (inactive) | > 100 µM (inactive) | > 100 µM (inactive) | > 100 µM (inactive) | > 100 µM (inactive) | > 100 µM (inactive) | > 100 µM (inactive) | > 100 µM (inactive) | – |
| C(=N\C12CC3CC(CC(C3)C1)C2)/C1CCCCC1 | > 100 µM (inactive) | > 100 µM (inactive) | > 100 µM (inactive) | > 100 | > 100 µM (inactive) | > 100 µM (inactive) | > 100 µM (inactive) | > 100 µM (inactive) | > 100 µM (inactive) | > 100 µM (inactive) | > 100 µM (inactive) | > 100 µM (inactive) | > 100 µM (inactive) | – | > 100 µM (inactive) | > 100 µM (inactive) | > 100 µM (inactive) | > 100 µM (inactive) | > 100 µM (inactive) | > 100 µM (inactive) |
| CC1=C(N2CC2)C(=O)c2nc3n(c2C1=O)CCC3OC(=O)CCl (stereo not drawn) | 0.0615 µM (active) | 0.021 µM (active) | 0.0395 µM (active) | 0.0194 | 0.0377 µM (active) | 1.91 µM (inactive) | 0.0298 µM (active) | 0.0358 µM (active) | 0.0771 µM (active) | 0.0719 µM (active) | 0.0452 µM (active) | 0.0338 µM (active) | 0.0373 µM (active) | 0.0555 µM (active) | 0.0538 µM (active) | 0.225 µM (active) | 0.0883 µM (active) | 0.0483 µM (active) | 0.0361 µM (active) | 0.056 µM (active) |
| CCCCC(=O)OCC(=O)[C@]1(O)Cc2c(O)c3c(c(O)c2[C@@H](OC2CC(NC(=O)C(F)(F)F)C(O)C(C)O2)C1)C(=O)c1c(OC)cccc1C3=O (stereo partly drawn) | 0.203 µM (active) | 0.365 µM (active) | 1.3 µM (inactive) | 1.39 | 0.787 µM (active) | 3 µM (inactive) | 2.07 µM (inactive) | 0.351 µM (active) | 2.96 µM (inactive) | 2.08 µM (inactive) | 0.519 µM (active) | 0.82 µM (active) | 0.308 µM (active) | 1.73 µM (inactive) | 0.348 µM (active) | 0.0304 µM (active) | 1.3 µM (inactive) | 1.06 µM (active) | 0.832 µM (active) | 0.387 µM (active) |
| COC(=O)CNC(=O)/C=C/[C@H](O[Si](C)(C)C(C)(C)C)[C@H](/C=C/C(=O)NCC(=O)OC)O[Si](C)(C)C(C)(C)C | > 25 µM (inactive) | > 25 µM (inactive) | > 25 µM (inactive) | > 25 | > 25 µM (inactive) | > 25 µM (inactive) | > 25 µM (inactive) | > 25 µM (inactive) | > 25 µM (inactive) | > 25 µM (inactive) | > 25 µM (inactive) | > 25 µM (inactive) | > 25 µM (inactive) | > 25 µM (inactive) | > 25 µM (inactive) | > 25 µM (inactive) | > 25 µM (inactive) | > 25 µM (inactive) | – | > 25 µM (inactive) |
| C[n+]1c2ccccc2c(N=[N+]=[N-])c2ccccc21 | > 10 µM (inactive) | > 10 µM (inactive) | > 10 µM (inactive) | 5.66 | > 10 µM (inactive) | 8.63 µM (inactive) | 7.14 µM (inactive) | 4.22 µM (inactive) | > 10 µM (inactive) | 4.26 µM (inactive) | 6.46 µM (inactive) | > 10 µM (inactive) | > 10 µM (inactive) | > 10 µM (inactive) | 9.18 µM (inactive) | 4.13 µM (inactive) | > 10 µM (inactive) | – | > 10 µM (inactive) | 4.83 µM (inactive) |
| O=C(C/N=C(\CN(c1ccccc1)c1ccccc1)Oc1c(Cl)cc(Cl)cc1Cl)N1c2ccccc2Sc2ccccc21 | – | > 100 µM (inactive) | 36.7 µM (inactive) | 32.9 | 38.1 µM (inactive) | > 100 µM (inactive) | 34.2 µM (inactive) | 40.2 µM (inactive) | 46.8 µM (inactive) | 88.7 µM (inactive) | 35.4 µM (inactive) | 0.101 µM (active) | > 100 µM (inactive) | > 100 µM (inactive) | > 100 µM (inactive) | 35.2 µM (inactive) | > 100 µM (inactive) | – | 30.5 µM (inactive) | > 100 µM (inactive) |
| O=C1c2c(ccc3c2CCCC3)CC12Cc1ccc3c(c1C2=O)CCCC3 | – | > 100 µM (inactive) | > 100 µM (inactive) | > 100 | – | > 100 µM (inactive) | > 100 µM (inactive) | > 100 µM (inactive) | > 100 µM (inactive) | > 100 µM (inactive) | > 100 µM (inactive) | > 100 µM (inactive) | > 100 µM (inactive) | > 100 µM (inactive) | > 100 µM (inactive) | > 100 µM (inactive) | > 100 µM (inactive) | > 100 µM (inactive) | > 100 µM (inactive) | > 100 µM (inactive) |
| CNC1(C(=O)O)CC1 | – | > 100 µM (inactive) | > 100 µM (inactive) | > 100 | > 100 µM (inactive) | > 100 µM (inactive) | > 100 µM (inactive) | > 100 µM (inactive) | > 100 µM (inactive) | > 100 µM (inactive) | > 100 µM (inactive) | > 100 µM (inactive) | > 100 µM (inactive) | > 100 µM (inactive) | > 100 µM (inactive) | > 100 µM (inactive) | > 100 µM (inactive) | – | > 100 µM (inactive) | > 100 µM (inactive) |
| COc1ccc(OC)c(/N=C/c2cc(OC)c(OC)c(OC)c2)c1 | 80.5 µM (inactive) | > 100 µM (inactive) | > 100 µM (inactive) | > 92.7 | > 80 µM (inactive) | > 100 µM (inactive) | 28 µM (inactive) | > 100 µM (inactive) | – | > 85.1 µM (inactive) | > 100 µM (inactive) | > 100 µM (inactive) | > 100 µM (inactive) | > 89.1 µM (inactive) | > 100 µM (inactive) | 32.5 µM (inactive) | > 100 µM (inactive) | > 100 µM (inactive) | > 100 µM (inactive) | > 100 µM (inactive) |
| Cc1c(C#N)c(N)n(C2OCC(O)C(O)C2O)c(=S)c1C#N (stereo not drawn) | > 100 µM (inactive) | > 100 µM (inactive) | > 100 µM (inactive) | > 100 | > 100 µM (inactive) | > 100 µM (inactive) | > 100 µM (inactive) | > 100 µM (inactive) | > 100 µM (inactive) | – | > 100 µM (inactive) | > 100 µM (inactive) | > 100 µM (inactive) | > 100 µM (inactive) | > 100 µM (inactive) | > 100 µM (inactive) | > 100 µM (inactive) | > 100 µM (inactive) | > 100 µM (inactive) | > 100 µM (inactive) |
| COC(=O)C1C(O)C(C)C(=O)C(C)/C=C\C=C(C)C(=O)Nc2c(C)c(OC(C)=O)c3c(c2O)C(=O)C(C)=C2OCOC(=C23)C(C)=CC(C)(O)C(O)C(C)C1O (stereo not drawn) | 44.2 µM (inactive) | 15 µM (inactive) | 21 µM (inactive) | 21.6 | 36.6 µM (inactive) | > 100 µM (inactive) | 39.2 µM (inactive) | 17.5 µM (inactive) | 42.4 µM (inactive) | – | 33.7 µM (inactive) | 31.1 µM (inactive) | 62.2 µM (inactive) | 27.4 µM (inactive) | > 100 µM (inactive) | 30.3 µM (inactive) | 18.8 µM (inactive) | 23.5 µM (inactive) | 25.4 µM (inactive) | 47.4 µM (inactive) |
| O=C1CSC2(CC(/C=C/c3ccccc3O)=NN2c2cccc(S(=O)(=O)O)c2)N1c1nc2ccccc2s1 (stereo not drawn) | 28.3 µM (inactive) | 30.5 µM (inactive) | 21.9 µM (inactive) | 20 | 30.6 µM (inactive) | 30.1 µM (inactive) | 21.4 µM (inactive) | 22.1 µM (inactive) | – | 22 µM (inactive) | 17.9 µM (inactive) | 54.6 µM (inactive) | – | 56.5 µM (inactive) | 53.7 µM (inactive) | 18.4 µM (inactive) | 41.7 µM (inactive) | 28.7 µM (inactive) | 59.4 µM (inactive) | 16.3 µM (inactive) |
